Measurements taken from patent US4514410A, “Substituted 8-phenylisoxazolo[4,3-e][1,4]diazepin-5-ones” (Hoechst-Roussel Pharmaceuticals Inc., priority 1984, dated 1985).

Assays:
[1] = Average conflict response ratio (anxiolytic); type: in vivo; details: drug:control
Description: The compounds of the invention are also useful as anxiolytic agents due to their ability to reduce anxiety in mammals. Anxiolytic activity is measured as the average conflict response ratio (drug:control) at 40 mg/kg of body weight.

[2] = system: extensor tonus in electroshocked mice; experiment: Inhibition of extensor tonus induced by electroshock in mice (anticonvulsant); type: in vivo; details: Mus musculus, effective dose for 50% inhibition of extensor tonus
Description: The anti-convulsant activity of some of the compounds of this invention expressed in terms of the effective dose for 50% inhibition of extensor tonus in mg/kg of body weight in electroshocked mice is given in Table I.

Row | SMILES | Average Conflict Response Ratio ([1]; at 40 mg/kg of body weight) | ED50 [2] [mg/kg] | Average Conflict Response Ratio ([1]; @ 20 mg/kg (standard))
1 | CC1=C2C(=C(c3ccccc3)N=CC(=O)N2C)NO1 [3,4-Dimethyl-8-phenylisoxazolo[4,3-e][1,4]diazepin-5-one] | 31.7 | 25.1 | 
2 | CC(=O)Nc1nnc(S(N)(=O)=O)s1 [acetazolamide, reference compound] |  | 29.1 | 
3 | CNC1=Nc2ccc(Cl)cc2C(c2ccccc2)=[N+]([O-])C1 [chlordiazepoxide, reference compound] |  |  | 32.6
4 | CC1=C2C(=C(c3ccccc3Cl)N=CC(=O)N2C)NO1 [3,4-Dimethyl-8-(2-chlorophenyl)isoxazolo[4,3-e][1,4]diazepin-5-one] | 18.2 | 35.6 | 
5 | CC1=C2C(=C(c3ccccc3F)N=CC(=O)N2C)NO1 [3,4-Dimethyl-8-(2-fluorophenyl)isoxazolo[4,3-e][1,4]diazepin-5-one] | 11.2 | 79.8 | 
